Experiments:
[1] = molecular target: T1, hSSB1 (Homo sapiens, UniProt Q9BQ15); assay: AlphaLISA competition dose-response binding assay; conditions: for binding to hSSB1 in the AlphaLISA: triplicate; for Kd: as restated in discussion, read-out: affinity to hSSB1 in AlphaLISA binding assays
T1 construct: 6xHis (N); made in house; host or cells: E. coli BL21 (DE3*)
Experimental: To analyse the binding of compounds to hSSB1 and design a screening assay, we used Perkin Elmer’s AlphaLISA technology. The full assay design is described in the Supplementary Information. The optimal assay conditions were determined with a series of titration matrices to be 0.5 nM hSSB1, 5 nM In3-PD-biotin, 1 nM anti-hSSB1 antibody, 10 μg/mL SA donor beads, and 5 μg/mL protein G acceptor beads in a 16 μL reaction volume. These were combined in a buffer containing 10 mM Tris (pH 7.5), 100 mM NaCl, 0.1% β-mercaptoethanol, and 0.01% IGEPAL. First, an 8 μL mix of hSSB1, anti-hSSB1 antibody, and acceptor beads was prepared, which was added to the compound of interest and incubated for 1 h. Second, an 8 μL aliquot of a solution containing In3-PD-biotin and SA donor beads was added to the well. This was incubated before imaging with an EnSight Multimode Plate Reader (PerkinElmer, Shelton, CT, USA) at 10, 60, and 120 min. The assay was designed in a competition format so that the Cheng–Prusoff equation was met and the IC50 approximated the Kd.
Dose–response curves were obtained for hit compounds and compared with TDRL-551. The same AlphaLISA competition format was used to determine the IC50/Kd of compounds binding to hSSB1. Each compound was dissolved in DMSO before being dispensed into a white 384-well microplate (PerkinElmer, Shelton, CT, USA) using a FlexDrop iQ. […]
1.1.1 Design of the AlphaLISA screening assay
To test whether the compounds bind to hSSB1 and to design an effective screening assay, we used AlphaLISA technology from Perkin Elmer. This technology involves binding a biotin-labelled control DNA oligonucleotide (btn-In3-PD) to a streptavidin-coated donor (SA-donor) bead. hSSB1 is bound to an anti-hSSB1 sheep antibody as described previously, which binds to Protein G-coated acceptor beads. When hSSB1 and btn-In3-PD bind, they bring the two beads close together, and with excitation at 680 nm by laser irradiation, the phthalocyanine in the donor bead excites ambient oxygen to a reactive form of O2. When this is within 200 nm of a europium-containing acceptor bead (during a binding event), the reactive oxygen is transferred to the thioxene derivative, producing light at 615 nm. Without the acceptor bead, oxygen returns to its ground state. This lends the assay to a competition-based format for high- […]
A titration matrix is required to optimise assay conditions to develop an AlphaLISA assay that accurately acquires results and subsequently follows the Cheng-Prusoff equation to report IC50’s as a molecule Kd. […] This is determined by finding the hook point of signal, which indicates the highest signal before the bead is saturated, after which a decrease in signal is observed. […]

[2] = molecular target: T1, hSSB1; assay: Electrophoretic mobility shift assay (EMSA), competition with Cy5-labelled ssDNA probe; type: binding; conditions: tested from 200 to 0.091 μM
Experimental: These were performed in 10 μL reactions of 10 mM Tris (pH 7.5), 100 mM NaCl, 0.01% IGEPAL, and 1 mM DTT. Two 5 μL solutions were prepared. The first mix contained hSSB1 with the compound of interest, which were incubated together for 10 min before the addition of the probe molecule, Cy5-labelled In3-PS. The combined solution was incubated for 30 min at 37 °C, before loading dye was added and the samples were loaded into 10% polyacrylamide TBE gels. These gels were run for 1.5 h in a cold room at 80 V before being imaged using a ChemiDoc Imaging System (BioRad, Hercules, CA, USA) and quantified using ImageStudio Lite (Version 5.2) software.
The optimal conditions for the EMSAs were established using a titration matrix of hSSB1 and Cy5-labelled In3-PD concentrations. Concentrations of hSSB1 from 1000 to 0.26 nM and Cy5-labelled In3-PD at 1 nM and 5 nM were tested. The final conditions were established as 15 nM hSSB1 and 1.5 nM Cy5-labelled In3-PS, where the In3-PS is 100% bound. The concentrations of the MS-ML compounds of Merck KGaA, Darmstadt, Germany, were tested from 100 to 0.046 μM, and the concentrations of the novel DAZLN compounds were tested from 200 to 0.091 μM.

[3] = test system: E. coli SSB; design: method as in PMID 27609050; conditions: ssDNA interaction; cited from earlier work
[4] = test system: U2OS cells; assay: CellTitre-Glo cytotoxicity assay; type: cell-based, human; conditions: 48 h incubation, 30—0.0492 μM, CTG
Experimental: The osteosarcoma cell line U2OS was purchased from the American Type Culture Collection (ATCC) and seeded at a density of 500 cells/well in a 384-well plate. They were maintained at 37 °C in a humidified atmosphere containing 5% CO2 in Roswell Park Memorial Institute […] (RPMI) medium (ThermoFisher Scientific, Inc., Brisbane, Australia) supplemented with 10% (v/v) heat-inactivated foetal bovine serum (FBS) (ThermoFisher Scientific). A cytotoxicity assay was conducted to test the impact of the three Merck KGaA, Darmstadt, Germany, compounds (MS-ML24, MS-ML25, MS-ML26) on cell viability. Increasing concentrations of each MS-ML compound were added from […] in serial dilutions of 2.5 (n = 4). The cells were incubated with the compound for 48 h before the CellTitre-Glo (CTG) (Promega) assay was performed as per the manufacturer’s instructions. The plate was read on an EnSight Multimode Plate Reader (PerkinElmer, Shelton, CT, USA).

[5] = molecular target: T1, hSSB1; assay: AlphaLISA Mini Library screen; type: binding; conditions: for inhibition at 10 µM: triplicate
Experimental: In parallel to the rational design of small-molecule inhibitors, we acquired access to the Open Innovation Mini Library of small compounds from Merck KGaA, Darmstadt, Germany. This library consisted of 80 compounds at 10 mM in DMSO that had been investigated against other targets, from receptor blockers to protein inhibitors. The goal of screening this library was to test various scaffolds for their affinity to hSSB1.
Using a FlexDrop iQ, 16 nL of each compound was dispensed onto a white low-volume 384-well microplate (PerkinElmer, Shelton, CT, USA) in triplicate at an assay concentration of 10 μM. In3-PS was used as the positive control binding entity at a concentration of 1 μM. The AlphaLISA assay conditions are described in Section 2.4. The hit cut-off used was an average inhibition of 30% across the three repeats. The plate was read using an EnSight Multimode Plate Reader (PerkinElmer, Shelton, CT, USA) at 10, 60, and 120 min.

T1 sequence (Q9BQ15 whole entry): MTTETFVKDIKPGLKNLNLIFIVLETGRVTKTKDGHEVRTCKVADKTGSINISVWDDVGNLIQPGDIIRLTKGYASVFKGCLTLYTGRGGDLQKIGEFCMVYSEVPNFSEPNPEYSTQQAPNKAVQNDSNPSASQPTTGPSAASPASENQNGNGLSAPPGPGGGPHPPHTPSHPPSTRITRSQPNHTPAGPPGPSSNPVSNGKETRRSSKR

COc1ccc2cc([C@H]3CC(c4cn(C)c5cc(OC)ccc45)=NN3)ccc2c1 [DAZLN-51]
binding to hSSB1 in the AlphaLISA [1]: no binding | binding to hSSB1 / inhibition in the EMSA [2]: no inhibition was observed

O=c1cc2oc3cc(O)c(O)cc3c(-c3ccccc3O)c-2cc1O [9-hydroxyphenylfluoron]
concentration at which 50% bound [3]: ~ 25 μM

O=c1c(O)cccc2cc(O)c(O)c(O)c12 [purpurogallin]
concentration at which 50% bound [3]: ~ 25 μM

COc1ccc2cc([C@H]3CC(c4cn(C)c5cc(OC)ccc45)=NN3C(=O)CCCC(=O)NCC(=O)N3CCOCC3)ccc2c1 [DAZLN-56]
binding to hSSB1 in the AlphaLISA [1]: low level of binding | binding to hSSB1 / inhibition in the EMSA [2]: not reflected in the EMSA

CCOc1ccc2cc(C3CC(c4ccc(I)cc4)=NN3C(=O)CCCC(=O)O)c(Cl)nc2c1 (stereo not drawn) [TDRL-551]
cytotoxic effect in U2OS cells [4]: no cytotoxic effect

CCCCCCN(Cc1ccc(C#Cc2ccc(CCCC)cc2)cc1)c1ccc(O)c(C(=O)O)c1 [MS-ML24]
Kd [1]: 143 nM | inhibition at 10 µM [5]: > 45%

CCCCCCN(Cc1ccc(C#Cc2ccc(CCCC)cc2)cc1)C(=O)c1ccc(O)c(C(=O)O)c1 [MS-ML25]
inhibition at 10 µM [5]: > 45%

CCCCCCN(Cc1ccc(C#Cc2ccc(CCCC)cc2)cc1)c1ccc(F)c(C(=O)O)c1 [MS-ML26]
Kd [1]: 198 nM | result in initial screen relative to hit threshold ([5]; 10 μM, hit cut-off average inhibition of 30%): slightly lower than the threshold set for the screen
